These are literature values, as cited in patent publication US6140051A, “Fluorescent dibenzazole derivatives and methods related thereto” (priority 1998, dated 2000).

The conditions of the data set: aqueous; cited from earlier work.

As for `OC[C@H]1O[C@@H](Oc2ccc3nc(-c4nc5ccccc5s4)sc3c2)[C@H](O)[C@@H](O)[C@H]1O` [galactoside of BBT], the solubility result is listed as “less than 1 mM”.
